The record followed here is patent US8791129B2, “Phenylquinazoline derivatives” (Merck Patent GmbH, priority 2010, dated 2014).

The structures appear in SMILES notation.

By IC50 is commonly meant the concentration that inhibits the measured activity by half.

This experiment concerns the target T1, Recombinant human HSP90α (Homo sapiens, UniProt P07900).
T1 construct: host or cells: E. coli
Kind of experiment: Radioligand filter binding test with [3H]17AAG for the measurement of HSP90 inhibitors. The following applies: competition with [3H]17AAG 0.08 μM; HSP90 1.5 μg/assay; 22° C., 30 min; read-out: IC50 (HSP90 inhibition). The source says: Test Method for the Measurement of HSP90 Inhibitors
The binding of geldanamycin or 17-allylamino-17-demethoxygeldanamycin (17AAG) to HSP90 and competitive inhibition thereof can be utilised in order to determine the inhibitory activity of the compounds according to the invention (Carreras et al. 2003, Chiosis et al. 2002).
In the specific case, a radioligand filter binding test is used. The radioligand used here is tritium-labelled 17-allylaminogeldanamycin, [3H]17AAG. This filter binding test allows a targeted search for inhibitors which interfere with the ATP binding site.
Recombinant human HSP90α (E. coli expressed, 95% purity);
[3H]17AAG (17-allylaminogeldanamycin, [allylamino-2,3-^3H. Specific activity: 1.11×10^12 Bq/mmol (Moravek, MT-1717);
HEPES filter buffer (50 mM HEPES, pH 7.0, 5 mM MgCl2, BSA 0.01%)
Multiscreen FB (1 μm) filter plate (Millipore, MAFBNOB 50).
The 96-well microtitre filter plates are firstly irrigated and coated with 0.1% of polyethyleneimine.
The test is carried out under the following conditions:
Reaction temperature 22° C.
Reaction time: 30 min., shaking at 800 rpm
50 mM HEPES HCl, pH 7.0, 5 mM MgCl2, 0.01% (w/v) of BSA
At the end of the reaction, the supernatant in the filter plate is removed by suction with the aid of a vacuum manifold (Multiscreen Separation System, Millipore), and the filter is washed twice.
The filter plates are then measured in a beta counter (Microbeta, Wallac) with scintillator (Microscint 20, Packard).
“% of control” is determined from the “counts per minutes” values, and the IC-50 value of a compound is calculated therefrom.
Take `Nc1nc(C(=O)N2Cc3ccccc3C2)c2cc(-c3cc(F)c(F)cc3CN3CCCC3)ccc2n1`: the IC50 lay within 10 to 1000 nM.

Regarding `Nc1nc(C(=O)N2Cc3ccccc3C2)c2cc(-c3ccccc3CN3CCC(O)CC3)ccc2n1`, the half-inhibitory concentration (IC50) lay in the range of 10 to 1000 nM.

Regarding `CC(C)CC(N)C(=O)OCc1cc(F)c(F)cc1-c1ccc2nc(N)nc(C(=O)N3Cc4ccccc4C3)c2c1` (centres unmarked), the 50% inhibitory concentration (IC50) was in the range of 10 to 1000 nM.

In the case of `Nc1nc(C(=O)N2Cc3ccccc3C2)c2cc(-c3cc(F)c(F)cc3COC(=O)[C@@H]3CCCN3)ccc2n1`, the concentration for half-maximal inhibition (IC50) was in the range of 10 to 1000 nM.

Consider `NCc1cc(F)c(F)cc1-c1ccc2nc(N)nc(C(=O)N3Cc4ccccc4C3)c2c1`, for which the IC50 is 10 to 1000 nM.

In the case of `Nc1nc(C(=O)N2Cc3ccccc3C2)c2cc(-c3cc(F)c(F)cc3COP(=O)(O)O)ccc2n1`, the concentration for half-maximal inhibition (IC50) fell in the range of 10 to 1000 nM.

Turning to `CCN(C)Cc1cc(F)c(F)cc1-c1ccc2nc(N)nc(C(=O)N3Cc4ccccc4C3)c2c1`, the half-maximal inhibitory concentration (IC50) was in the range of 10 to 1000 nM.

Take `COc1cc(CO)c(-c2ccc3nc(N)nc(C(=O)N4Cc5ccccc5C4)c3c2)cc1OC`: the 50% inhibitory concentration (IC50) fell in the range of 1000 to 10000 nM.

As to `CC(C)(C)NCc1ccccc1-c1ccc2nc(N)nc(C(=O)N3Cc4ccccc4C3)c2c1`, the IC50 lay within 10 to 1000 nM.

For `Nc1nc(C(=O)N2Cc3ccccc3C2)c2cc(-c3ccccc3CN3CCCC3C(=O)NCCO)ccc2n1` (centres unmarked), the half-maximal inhibitory concentration (IC50) is 10 to 1000 nM.

With `Nc1nc(C(=O)N2Cc3ccccc3C2)c2cc(-c3ccccc3CN3CCC(N)C3)ccc2n1` (centres unmarked), the IC50 lay within 10 to 1000 nM.

Consider `CN(CCO)Cc1ccccc1-c1ccc2nc(N)nc(C(=O)N3Cc4ccccc4C3)c2c1`, for which the concentration for half-maximal inhibition (IC50) lay within 10 to 1000 nM.

Turning to `Nc1nc(C(=O)N2Cc3ccccc3C2)c2cc(-c3ccccc3CN3CCC(CO)C3)ccc2n1` (centres unmarked), the IC50 is 10 to 1000 nM.

Consider `CC1CCCN1Cc1ccc(F)cc1-c1ccc2nc(N)nc(C(=O)N3Cc4ccccc4C3)c2c1` (centres unmarked), for which the IC50 is 10 to 1000 nM.

For `Nc1nc(C(=O)N2Cc3ccccc3C2)c2cc(-c3ccccc3CN3CC[C@H](F)C3)ccc2n1`, the IC50 fell in the range of 10 to 1000 nM.

For the compound `CC1CCC(C)N1Cc1ccccc1-c1ccc2nc(N)nc(C(=O)N3Cc4ccccc4C3)c2c1` (centres unmarked), the IC50 was 10 to 1000 nM.

With `CC(C)(C)NCc1cc(F)c(F)cc1-c1ccc2nc(N)nc(C(=O)N3Cc4ccccc4C3)c2c1`, the half-maximal inhibitory concentration (IC50) lay in the range of 10 to 1000 nM.

Take `CC1CCCN1Cc1ccccc1-c1ccc2nc(N)nc(C(=O)N3Cc4ccccc4C3)c2c1` (centres unmarked): the half-inhibitory concentration (IC50) was 10 to 1000 nM.

Take `Nc1nc(C(=O)N2Cc3ccccc3C2)c2cc(-c3ccccc3CN(CCO)CCO)ccc2n1`: the IC50 lay in the range of 10 to 1000 nM.

As to `Nc1nc(C(=O)N2Cc3ccccc3C2)c2cc(-c3cc(F)ccc3CN3CCC(O)CC3)ccc2n1`, the IC50 fell in the range of 10 to 1000 nM.

`CCN(C)Cc1ccc(F)cc1-c1ccc2nc(N)nc(C(=O)N3Cc4ccccc4C3)c2c1`: the half-inhibitory concentration (IC50) is 10 to 1000 nM.

For the compound `NOCc1cc(F)c(F)cc1-c1ccc2nc(N)nc(C(=O)N3Cc4ccccc4C3)c2c1`, the IC50 lay within 10 to 1000 nM.

In the case of `CN(C)CCCOCc1cc(F)c(F)cc1-c1ccc2nc(N)nc(C(=O)N3Cc4ccccc4C3)c2c1`, the half-maximal inhibitory concentration (IC50) fell in the range of 10 to 1000 nM.

Regarding `CC1CCCN1Cc1cc(F)ccc1-c1ccc2nc(N)nc(C(=O)N3Cc4ccccc4C3)c2c1` (centres unmarked), the half-maximal inhibitory concentration (IC50) lay within 10 to 1000 nM.

Regarding `NCCCOCc1cc(F)c(F)cc1-c1ccc2nc(N)nc(C(=O)N3Cc4ccccc4C3)c2c1`, the IC50 fell in the range of 10 to 1000 nM.

For the compound `CCN(CCO)Cc1ccc(F)cc1-c1ccc2nc(N)nc(C(=O)N3Cc4ccccc4C3)c2c1`, the IC50 fell in the range of 10 to 1000 nM.

With `Nc1nc(C(=O)N2Cc3ccccc3C2)c2cc(-c3cc(F)c(F)cc3COCCO)ccc2n1`, the half-maximal inhibitory concentration (IC50) lay in the range of 10 to 1000 nM.

On to `NCCCCC(N)C(=O)OCc1ccc(F)cc1-c1ccc2nc(N)nc(C(=O)N3Cc4ccccc4C3)c2c1` (centres unmarked), for which the IC50 lay within 10 to 1000 nM.

On to `NC(=O)CNCc1ccccc1-c1ccc2nc(N)nc(C(=O)N3Cc4ccccc4C3)c2c1`, for which the IC50 fell in the range of 10 to 1000 nM.

In the case of `Nc1nc(C(=O)N2Cc3ccccc3C2)c2cc(-c3ccccc3CN3CCCC3)ccc2n1`, the half-inhibitory concentration (IC50) was 10 to 1000 nM.

Consider `CCN(CCO)Cc1ccccc1-c1ccc2nc(N)nc(C(=O)N3Cc4ccccc4C3)c2c1`, for which the IC50 was 10 to 1000 nM.

Consider `CC(C)(C)OC(=O)NCCCCCC(=O)OCc1cc(F)c(F)cc1-c1ccc2nc(N)nc(C(=O)N3Cc4ccccc4C3)c2c1`, for which the IC50 lay in the range of 10 to 1000 nM.

Consider `CN(C)CCC(=O)OCc1cc(F)c(F)cc1-c1ccc2nc(N)nc(C(=O)N3Cc4ccccc4C3)c2c1`, for which the half-maximal inhibitory concentration (IC50) fell in the range of 10 to 1000 nM.

Take `Nc1nc(C(=O)N2Cc3ccccc3C2)c2cc(-c3cc(F)c(F)cc3COCCOCCOCCO)ccc2n1`: the IC50 fell in the range of 10 to 1000 nM.

Consider `CC1CCC(C)N1Cc1cc(F)c(F)cc1-c1ccc2nc(N)nc(C(=O)N3Cc4ccccc4C3)c2c1` (centres unmarked), for which the IC50 lay in the range of 10 to 1000 nM.

For the compound `CN1CCN(Cc2cc(F)ccc2-c2ccc3nc(N)nc(C(=O)N4Cc5ccccc5C4)c3c2)CC1`, the half-maximal inhibitory concentration (IC50) is 10 to 1000 nM.

Consider `Nc1nc(C(=O)N2Cc3ccccc3C2)c2cc(-c3ccccc3CN3CCC(O)C3)ccc2n1` (centres unmarked), for which the concentration for half-maximal inhibition (IC50) lay in the range of 10 to 1000 nM.

On to `CC(C)(C)OC(=O)N1CCC[C@H]1C(=O)OCc1cc(F)c(F)cc1-c1ccc2nc(N)nc(C(=O)N3Cc4ccccc4C3)c2c1`, for which the half-maximal inhibitory concentration (IC50) lay in the range of 10 to 1000 nM.

For `NCCC(=O)NCc1cc(F)c(F)cc1-c1ccc2nc(N)nc(C(=O)N3Cc4ccccc4C3)c2c1`, the IC50 lay in the range of 10 to 1000 nM.

With `NCCC(=O)OCc1cc(F)c(F)cc1-c1ccc2nc(N)nc(C(=O)N3Cc4ccccc4C3)c2c1`, the IC50 is 10 to 1000 nM.

Take `CCN(CC)Cc1ccc(F)cc1-c1ccc2nc(N)nc(C(=O)N3Cc4ccccc4C3)c2c1`: the half-inhibitory concentration (IC50) lay in the range of 10 to 1000 nM.

Take `Nc1nc(C(=O)N2Cc3ccccc3C2)c2cc(-c3ccccc3CNC3CCC3)ccc2n1`: the concentration for half-maximal inhibition (IC50) was in the range of 10 to 1000 nM.

For `CC(C)(C)NCc1ccc(F)cc1-c1ccc2nc(N)nc(C(=O)N3Cc4ccccc4C3)c2c1`, the IC50 fell in the range of 10 to 1000 nM.

For the compound `CCN(CC)Cc1ccccc1-c1ccc2nc(N)nc(C(=O)N3Cc4ccccc4C3)c2c1`, the concentration for half-maximal inhibition (IC50) is 10 to 1000 nM.

`NCCCC[C@H](N)C(=O)OCc1ccccc1-c1ccc2nc(N)nc(C(=O)N3Cc4ccccc4C3)c2c1`: the IC50 is 10 to 1000 nM.

`CN1CCN(Cc2ccc(F)cc2-c2ccc3nc(N)nc(C(=O)N4Cc5ccccc5C4)c3c2)CC1`: the half-maximal inhibitory concentration (IC50) was in the range of 10 to 1000 nM.

With `CC1CCCN1Cc1cc(F)c(F)cc1-c1ccc2nc(N)nc(C(=O)N3Cc4ccccc4C3)c2c1` (centres unmarked), the IC50 fell in the range of 10 to 1000 nM.

As to `Nc1nc(C(=O)N2Cc3ccccc3C2)c2cc(-c3ccccc3CNC3CC3)ccc2n1`, the IC50 was 10 to 1000 nM.

Take `CN(Cc1ccccc1-c1ccc2nc(N)nc(C(=O)N3Cc4ccccc4C3)c2c1)C1CC1`: the IC50 fell in the range of 10 to 1000 nM.

Consider `CC(C)(C)C(=O)OCc1cc(F)c(F)cc1-c1ccc2nc(N)nc(C(=O)N3Cc4ccccc4C3)c2c1`, for which the IC50 fell in the range of 10 to 1000 nM.

Regarding `CCN(C)Cc1ccccc1-c1ccc2nc(N)nc(C(=O)N3Cc4ccccc4C3)c2c1`, the IC50 lay within 10 to 1000 nM.

On to `CC(C)(C)OP(=O)(OCc1cc(F)c(F)cc1-c1ccc2nc(N)nc(C(=O)N3Cc4ccccc4C3)c2c1)OC(C)(C)C`, for which the concentration for half-maximal inhibition (IC50) lay within 10 to 1000 nM.

For `NCCC[C@H](N)C(=O)OCc1cc(F)c(F)cc1-c1ccc2nc(N)nc(C(=O)N3Cc4ccccc4C3)c2c1`, the 50% inhibitory concentration (IC50) is 10 to 1000 nM.

For `CC(C)(C)NCc1cc(F)ccc1-c1ccc2nc(N)nc(C(=O)N3Cc4ccccc4C3)c2c1`, the half-maximal inhibitory concentration (IC50) lay within 10 to 1000 nM.

As to `CC(C)(C)NCc1cc2c(cc1-c1ccc3nc(N)nc(C(=O)N4Cc5ccccc5C4)c3c1)OCO2`, the 50% inhibitory concentration (IC50) fell in the range of 10 to 1000 nM.

Turning to `NCCCC[C@H](N)C(=O)OCc1cc(F)c(F)cc1-c1ccc2nc(N)nc(C(=O)N3Cc4ccccc4C3)c2c1`, the concentration for half-maximal inhibition (IC50) was in the range of 10 to 1000 nM.

As to `CNC(=O)C1CCCN1Cc1ccccc1-c1ccc2nc(N)nc(C(=O)N3Cc4ccccc4C3)c2c1` (centres unmarked), the IC50 lay in the range of 10 to 1000 nM.

Regarding `CN(C)CCC(=O)NCc1cc(F)c(F)cc1-c1ccc2nc(N)nc(C(=O)N3Cc4ccccc4C3)c2c1`, the IC50 was in the range of 10 to 1000 nM.

Turning to `C[C@H]1CCCN1Cc1ccccc1-c1ccc2nc(N)nc(C(=O)N3Cc4ccccc4C3)c2c1`, the IC50 lay within 10 to 1000 nM.

`C[C@@H]1CCCN1Cc1ccccc1-c1ccc2nc(N)nc(C(=O)N3Cc4ccccc4C3)c2c1`: the 50% inhibitory concentration (IC50) was 10 to 1000 nM.

Take `CCN(CC)Cc1cc(F)c(F)cc1-c1ccc2nc(N)nc(C(=O)N3Cc4ccccc4C3)c2c1`: the concentration for half-maximal inhibition (IC50) was 10 to 1000 nM.

`Nc1nc(C(=O)N2Cc3ccccc3C2)c2cc(-c3ccccc3CN3CCC(F)(F)C3)ccc2n1`: the half-maximal inhibitory concentration (IC50) was 10 to 1000 nM.

As to `CN(C)CCOCc1cc(F)c(F)cc1-c1ccc2nc(N)nc(C(=O)N3Cc4ccccc4C3)c2c1`, the IC50 is 10 to 1000 nM.

For the compound `CN1CCN(Cc2cc(F)c(F)cc2-c2ccc3nc(N)nc(C(=O)N4Cc5ccccc5C4)c3c2)CC1`, the IC50 was in the range of 10 to 1000 nM.

Regarding `CN(Cc1cc(F)c(F)cc1-c1ccc2nc(N)nc(C(=O)N3Cc4ccccc4C3)c2c1)C(C)(C)C`, the concentration for half-maximal inhibition (IC50) is 10 to 1000 nM.
